{"source": "ChEMBL document CHEMBL5705887", "about": "“Distinct concentration-dependent effects of the polo-like kinase 1-specific inhibitor GSK461364A, including differential effect on apoptosis” (Cancer Res, 2009)", "key": {"[1]": {"molecular_target": "Calcium/calmodulin-dependent protein kinase type II subunit gamma (Homo sapiens) (UniProt Q13555)", "sequence (Q13555 whole entry)": "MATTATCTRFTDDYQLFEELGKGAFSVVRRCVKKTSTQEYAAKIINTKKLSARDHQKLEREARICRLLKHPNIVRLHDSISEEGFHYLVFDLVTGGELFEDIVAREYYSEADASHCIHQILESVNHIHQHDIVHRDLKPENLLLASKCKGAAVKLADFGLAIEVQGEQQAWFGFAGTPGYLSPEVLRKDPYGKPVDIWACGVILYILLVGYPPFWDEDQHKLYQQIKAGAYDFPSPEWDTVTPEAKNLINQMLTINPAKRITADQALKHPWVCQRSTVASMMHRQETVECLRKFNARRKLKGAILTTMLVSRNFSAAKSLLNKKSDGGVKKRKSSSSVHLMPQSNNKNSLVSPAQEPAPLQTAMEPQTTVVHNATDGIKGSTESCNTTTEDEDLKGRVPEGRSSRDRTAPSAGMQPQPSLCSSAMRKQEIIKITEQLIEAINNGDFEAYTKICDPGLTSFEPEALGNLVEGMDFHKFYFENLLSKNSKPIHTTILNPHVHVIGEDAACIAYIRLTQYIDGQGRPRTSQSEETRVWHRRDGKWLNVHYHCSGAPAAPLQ", "experiment": "Inhibition recombinant human CAMKII-gamma at 10 uM relative to control"}, "[2]": {"molecular_target": "Platelet-derived growth factor receptor alpha (Homo sapiens) (UniProt P16234)", "sequence (P16234 whole entry)": "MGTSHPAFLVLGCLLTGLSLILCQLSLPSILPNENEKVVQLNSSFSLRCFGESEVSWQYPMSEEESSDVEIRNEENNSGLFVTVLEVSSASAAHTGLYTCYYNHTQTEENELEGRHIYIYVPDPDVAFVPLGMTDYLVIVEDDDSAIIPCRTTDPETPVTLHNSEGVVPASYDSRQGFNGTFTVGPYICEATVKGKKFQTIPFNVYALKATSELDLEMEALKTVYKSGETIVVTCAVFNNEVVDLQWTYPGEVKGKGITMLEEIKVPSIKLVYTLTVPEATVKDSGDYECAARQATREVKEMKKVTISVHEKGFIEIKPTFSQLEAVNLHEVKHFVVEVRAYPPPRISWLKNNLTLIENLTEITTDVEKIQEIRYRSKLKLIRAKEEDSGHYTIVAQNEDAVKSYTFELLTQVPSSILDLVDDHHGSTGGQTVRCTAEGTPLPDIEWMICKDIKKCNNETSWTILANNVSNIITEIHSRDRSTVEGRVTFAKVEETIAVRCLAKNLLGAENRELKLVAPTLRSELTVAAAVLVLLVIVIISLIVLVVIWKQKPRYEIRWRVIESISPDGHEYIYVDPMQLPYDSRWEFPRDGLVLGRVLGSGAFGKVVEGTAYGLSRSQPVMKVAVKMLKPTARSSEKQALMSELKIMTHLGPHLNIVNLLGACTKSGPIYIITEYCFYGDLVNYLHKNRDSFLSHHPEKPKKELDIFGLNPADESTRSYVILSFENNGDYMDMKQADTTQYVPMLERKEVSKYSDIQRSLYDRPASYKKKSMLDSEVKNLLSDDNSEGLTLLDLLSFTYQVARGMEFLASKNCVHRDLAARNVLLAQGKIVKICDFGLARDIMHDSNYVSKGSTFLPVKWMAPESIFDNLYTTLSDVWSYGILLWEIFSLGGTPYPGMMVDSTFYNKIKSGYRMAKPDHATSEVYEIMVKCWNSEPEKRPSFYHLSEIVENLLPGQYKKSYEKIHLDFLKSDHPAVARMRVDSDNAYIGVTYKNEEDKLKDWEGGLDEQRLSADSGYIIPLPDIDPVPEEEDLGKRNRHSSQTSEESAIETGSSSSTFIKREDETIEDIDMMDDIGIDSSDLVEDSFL", "experiment": "Inhibition of N-terminal his6-tagged recombinant human PDGFRalpha (550 to end residues) expressed in baculovirus Sf21 insect cells at 10 uM relative to control"}, "[3]": {"system": "Fibroblast growth factor receptor 1 (Homo sapiens), P11362 [V561M]", "sequence (P11362 whole entry V561M, the tested form may be a part)": "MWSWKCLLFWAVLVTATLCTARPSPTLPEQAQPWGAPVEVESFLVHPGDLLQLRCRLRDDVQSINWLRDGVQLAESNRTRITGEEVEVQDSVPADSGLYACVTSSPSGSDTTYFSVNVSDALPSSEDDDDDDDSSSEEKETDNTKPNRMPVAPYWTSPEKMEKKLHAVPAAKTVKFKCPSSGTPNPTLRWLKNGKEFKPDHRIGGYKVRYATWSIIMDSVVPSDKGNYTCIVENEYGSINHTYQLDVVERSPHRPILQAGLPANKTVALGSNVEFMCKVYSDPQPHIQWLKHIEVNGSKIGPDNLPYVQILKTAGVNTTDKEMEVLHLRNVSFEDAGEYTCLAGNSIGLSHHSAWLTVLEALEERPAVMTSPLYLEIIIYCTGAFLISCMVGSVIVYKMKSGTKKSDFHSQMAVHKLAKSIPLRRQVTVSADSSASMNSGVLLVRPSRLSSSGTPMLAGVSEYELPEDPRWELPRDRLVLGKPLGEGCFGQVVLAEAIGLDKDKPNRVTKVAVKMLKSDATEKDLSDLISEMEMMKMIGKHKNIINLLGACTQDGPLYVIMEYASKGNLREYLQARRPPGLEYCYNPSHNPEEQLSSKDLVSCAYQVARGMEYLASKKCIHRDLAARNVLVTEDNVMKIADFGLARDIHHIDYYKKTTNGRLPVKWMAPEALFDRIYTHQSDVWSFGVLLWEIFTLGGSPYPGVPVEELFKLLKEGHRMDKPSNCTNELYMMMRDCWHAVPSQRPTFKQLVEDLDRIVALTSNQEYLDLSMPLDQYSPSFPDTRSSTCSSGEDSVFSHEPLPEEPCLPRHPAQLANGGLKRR", "experiment": "Inhibition of N-terminal his6-tagged recombinant human FGFR1 V561M mutant (456 to 765 residues) at 10 uM relative to control"}, "[4]": {"molecular_target": "Cytoplasmic tyrosine-protein kinase BMX (Homo sapiens) (UniProt P51813)", "sequence (P51813 whole entry)": "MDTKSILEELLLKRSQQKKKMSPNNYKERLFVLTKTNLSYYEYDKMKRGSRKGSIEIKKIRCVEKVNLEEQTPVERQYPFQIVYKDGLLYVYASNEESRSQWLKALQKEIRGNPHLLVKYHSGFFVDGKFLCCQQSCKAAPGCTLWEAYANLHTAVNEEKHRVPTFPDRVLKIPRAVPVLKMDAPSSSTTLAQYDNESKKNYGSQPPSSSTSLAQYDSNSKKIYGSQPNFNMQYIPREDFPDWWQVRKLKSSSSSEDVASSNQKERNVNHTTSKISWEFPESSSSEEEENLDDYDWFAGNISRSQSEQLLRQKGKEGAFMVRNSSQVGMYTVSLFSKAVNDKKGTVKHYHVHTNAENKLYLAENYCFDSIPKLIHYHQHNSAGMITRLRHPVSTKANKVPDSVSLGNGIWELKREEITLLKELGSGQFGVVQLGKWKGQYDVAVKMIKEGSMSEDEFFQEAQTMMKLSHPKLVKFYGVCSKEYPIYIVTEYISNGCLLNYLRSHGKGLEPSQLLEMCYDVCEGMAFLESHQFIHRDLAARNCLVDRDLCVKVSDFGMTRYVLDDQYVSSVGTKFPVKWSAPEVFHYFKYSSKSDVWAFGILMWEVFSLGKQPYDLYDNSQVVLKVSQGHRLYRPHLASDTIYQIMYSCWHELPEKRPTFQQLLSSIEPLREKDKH", "experiment": "Inhibition of N-terminal his6-tagged recombinant human BMX expressed in baculovirus Sf21 insect cells at 10 uM relative to control"}, "[5]": {"molecular_target": "Serine/threonine-protein kinase D1 (Homo sapiens) (UniProt Q15139)", "sequence (Q15139 whole entry)": "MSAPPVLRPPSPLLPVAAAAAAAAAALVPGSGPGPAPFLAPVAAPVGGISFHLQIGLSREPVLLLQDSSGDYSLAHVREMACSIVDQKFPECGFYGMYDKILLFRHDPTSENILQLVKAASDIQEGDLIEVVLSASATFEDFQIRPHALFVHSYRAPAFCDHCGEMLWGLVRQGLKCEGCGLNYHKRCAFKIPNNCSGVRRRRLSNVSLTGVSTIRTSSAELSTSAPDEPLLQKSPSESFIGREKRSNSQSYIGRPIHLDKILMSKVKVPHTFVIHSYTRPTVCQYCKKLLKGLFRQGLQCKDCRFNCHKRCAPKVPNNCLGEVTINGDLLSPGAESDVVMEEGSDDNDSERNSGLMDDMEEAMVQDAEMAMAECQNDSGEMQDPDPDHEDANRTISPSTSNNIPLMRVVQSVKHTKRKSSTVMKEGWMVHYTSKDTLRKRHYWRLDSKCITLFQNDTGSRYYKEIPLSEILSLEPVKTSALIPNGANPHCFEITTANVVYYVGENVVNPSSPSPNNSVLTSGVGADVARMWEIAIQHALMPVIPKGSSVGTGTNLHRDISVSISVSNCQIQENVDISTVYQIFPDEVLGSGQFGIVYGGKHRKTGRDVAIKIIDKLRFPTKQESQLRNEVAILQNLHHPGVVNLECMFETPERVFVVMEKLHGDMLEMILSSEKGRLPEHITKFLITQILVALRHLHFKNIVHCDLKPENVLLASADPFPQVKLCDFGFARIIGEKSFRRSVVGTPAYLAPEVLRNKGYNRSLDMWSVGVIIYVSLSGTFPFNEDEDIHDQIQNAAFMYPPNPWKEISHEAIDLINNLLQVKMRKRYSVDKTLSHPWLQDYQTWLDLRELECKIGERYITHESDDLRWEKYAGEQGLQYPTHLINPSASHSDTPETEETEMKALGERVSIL", "experiment": "Inhibition of recombinant human PKC-mu at 10 uM relative to control"}, "HL-60 [6]": {"system": "HL-60", "experiment": "Antiproliferative activity against human HL-60 cells assessed as growth inhibition incubated for 72 hrs by celltiter-glo assay", "assay_type": "functional"}, "NCI-H460": {"system": "NCI-H460", "experiment": "Antiproliferative activity against human NCI-H460 cells assessed as growth inhibition incubated for 72 hrs by celltiter-glo assay", "assay_type": "functional"}, "MX1": {"system": "MX1", "experiment": "Antiproliferative activity against human MX1 cells assessed as growth inhibition incubated for 72 hrs by celltiter-glo assay", "assay_type": "functional"}, "U2OS [7]": {"system": "U2OS", "experiment": "Antiproliferative activity against human U2OS cells assessed as growth inhibition incubated for 72 hrs by celltiter-glo assay", "assay_type": "functional"}, "H322": {"system": "H322", "experiment": "Antiproliferative activity against human H322 cells assessed as growth inhibition incubated for 72 hrs by celltiter-glo assay", "assay_type": "functional", "conditions": "NCI-H322"}, "PC-3 [8]": {"system": "PC-3", "experiment": "Antiproliferative activity against human PC-3 cells assessed as growth inhibition incubated for 72 hrs by celltiter-glo assay", "assay_type": "functional"}, "BT-474 [9]": {"system": "BT-474", "experiment": "Antiproliferative activity against human BT-474 cells assessed as growth inhibition incubated for 72 hrs by celltiter-glo assay", "assay_type": "functional"}, "U2OS [10]": {"system": "U2OS", "experiment": "Induction of mitotic arrest in human U2OS cells expressing fused cyclin B1-GFP at > 250 nmol/L incubated for 48 hrs by image based analysis", "assay_type": "functional, cell-based"}, "U2OS [11]": {"system": "U2OS", "experiment": "Induction of mitotic arrest in human U2OS cells assessed as effect on pHH3 level at 10 to 250 nmol/L incubated for 19 hrs by ELISA analysis", "assay_type": "functional, cell-based", "conditions": "dose 10-250 nmol/L"}, "COLO 205": {"system": "COLO 205", "experiment": "Antitumor activity against human COLO 205 cells xenografted in Nude mouse assessed as increase in pIk1 level at 50 mg/kg, ip measured at 24 hrs by immunohistochemistry analysis", "assay_type": "functional, organism-based"}, "[12]": {"experiment": "Antiproliferative activity against human A375P cells assessed as of viable cell signal at minimum maximum cell growth incubated for 72 hrs by celltiter-glo assay relative to control", "assay_type": "functional"}, "A549": {"system": "A549", "experiment": "Antiproliferative activity against human A549 cells assessed as of viable cell signal at minimum maximum cell growth incubated for 72 hrs by celltiter-glo assay relative to control", "assay_type": "functional"}, "BT-474 [13]": {"system": "BT-474", "experiment": "Antiproliferative activity against human BT-474 cells assessed as of viable cell signal at minimum maximum cell growth incubated for 72 hrs by celltiter-glo assay relative to control", "assay_type": "functional"}, "Calu-3": {"system": "Calu-3", "experiment": "Antiproliferative activity against human Calu-3 cells assessed as of viable cell signal at minimum maximum cell growth incubated for 72 hrs by celltiter-glo assay relative to control", "assay_type": "functional"}, "HeLa": {"system": "HeLa", "experiment": "Antiproliferative activity against human HeLa cells assessed as of viable cell signal at minimum maximum cell growth incubated for 72 hrs by celltiter-glo assay relative to control", "assay_type": "functional"}, "Hep 3B2": {"system": "Hep 3B2", "experiment": "Antiproliferative activity against human Hep3B cells assessed as of viable cell signal at minimum maximum cell growth incubated for 72 hrs by celltiter-glo assay relative to control", "assay_type": "functional"}, "HL-60 [14]": {"system": "HL-60", "experiment": "Antiproliferative activity against human HL-60 cells assessed as of viable cell signal at minimum maximum cell growth incubated for 72 hrs by celltiter-glo assay relative to control", "assay_type": "functional"}, "Jurkat": {"system": "Jurkat", "experiment": "Antiproliferative activity against human Jurkat cells assessed as of viable cell signal at minimum maximum cell growth incubated for 72 hrs by celltiter-glo assay relative to control", "assay_type": "functional"}, "MIA PaCa-2": {"system": "MIA PaCa-2", "experiment": "Antiproliferative activity against human MIA PaCa-2 cells assessed as of viable cell signal at minimum maximum cell growth incubated for 72 hrs by celltiter-glo assay relative to control", "assay_type": "functional"}, "OVCAR-8": {"system": "OVCAR-8", "experiment": "Antiproliferative activity against human OVCAR-8 cells assessed as of viable cell signal at minimum maximum cell growth incubated for 72 hrs by celltiter-glo assay relative to control", "assay_type": "functional"}, "PANC-08-13": {"system": "PANC-08-13", "experiment": "Antiproliferative activity against human PANC-08-13 cells assessed as of viable cell signal at minimum maximum cell growth incubated for 72 hrs by celltiter-glo assay relative to control", "assay_type": "functional"}, "[15]": {"experiment": "Antiproliferative activity against human PL45 cells assessed as of viable cell signal at minimum maximum cell growth incubated for 72 hrs by celltiter-glo assay relative to control", "assay_type": "functional"}, "Raji": {"system": "Raji", "experiment": "Antiproliferative activity against human Raji cells assessed as of viable cell signal at minimum maximum cell growth incubated for 72 hrs by celltiter-glo assay relative to control", "assay_type": "functional"}, "SCLC": {"system": "SCLC", "experiment": "Antiproliferative activity against human SCLC cells assessed as of viable cell signal at minimum maximum cell growth incubated for 72 hrs by celltiter-glo assay relative to control", "assay_type": "functional"}, "SJSA-1": {"system": "SJSA-1", "experiment": "Antiproliferative activity against human SJSA-1 cells assessed as of viable cell signal at minimum maximum cell growth incubated for 72 hrs by celltiter-glo assay relative to control", "assay_type": "functional"}, "SK-OV-3": {"system": "SK-OV-3", "experiment": "Antiproliferative activity against human SK-OV-3 cells assessed as of viable cell signal at minimum maximum cell growth incubated for 72 hrs by celltiter-glo assay relative to control", "assay_type": "functional"}, "A-427": {"system": "A-427", "experiment": "Antiproliferative activity against human A-427 cells assessed as viable cell signal at maximum growth inhibition incubated for 72 hrs by celltiter-glo assay relative to control", "assay_type": "functional"}, "A498": {"system": "A498", "experiment": "Antiproliferative activity against human A498 cells assessed as viable cell signal at maximum growth inhibition incubated for 72 hrs by celltiter-glo assay relative to control", "assay_type": "functional"}, "BXPC-3": {"system": "BXPC-3", "experiment": "Antiproliferative activity against human BXPC-3 cells assessed as viable cell signal at maximum growth inhibition incubated for 72 hrs by celltiter-glo assay relative to control", "assay_type": "functional"}, "HCC1937": {"system": "HCC1937", "experiment": "Antiproliferative activity against human HCC1937 cells assessed as viable cell signal at maximum growth inhibition incubated for 72 hrs by celltiter-glo assay relative to control", "assay_type": "functional"}, "NCI-H1155": {"system": "NCI-H1155", "experiment": "Antiproliferative activity against human NCI-H1155 cells assessed as viable cell signal at maximum growth inhibition incubated for 72 hrs by celltiter-glo assay relative to control", "assay_type": "functional"}, "NCI-H727": {"system": "NCI-H727", "experiment": "Antiproliferative activity against human NCI-H727 cells assessed as viable cell signal at maximum growth inhibition incubated for 72 hrs by celltiter-glo assay relative to control", "assay_type": "functional"}, "PC-3 [16]": {"system": "PC-3", "experiment": "Antiproliferative activity against human PC-3 cells assessed as viable cell signal at maximum growth inhibition incubated for 72 hrs by celltiter-glo assay relative to control", "assay_type": "functional"}, "SK-MEL3": {"system": "SK-MEL3", "experiment": "Antiproliferative activity against human SK-MEL3 cells assessed as viable cell signal at maximum growth inhibition incubated for 72 hrs by celltiter-glo assay relative to control", "assay_type": "functional"}, "SW-620": {"system": "SW-620", "experiment": "Antiproliferative activity against human SW620 cells assessed as viable cell signal at maximum growth inhibition incubated for 72 hrs by celltiter-glo assay relative to control", "assay_type": "functional"}}, "note": "Activity calls are given as the source filed them. No cut-off for these calls is given here."}
{"smiles": "C[C@@H](Oc1cc(-n2cnc3ccc(CN4CCN(C)CC4)cc32)sc1C(N)=O)c1ccccc1C(F)(F)F", "note": "[GSK-461364]", "values": [{"measurement": "inhibition", "setting": "[1]", "result": 84, "unit": "%"}, {"measurement": "inhibition", "setting": "[2]", "result": 72, "unit": "%"}, {"measurement": "inhibition", "setting": "[3]", "result": 62, "unit": "%"}, {"measurement": "inhibition", "setting": "[4]", "result": 57, "unit": "%"}, {"measurement": "inhibition", "setting": "[5]", "result": 53, "unit": "%"}, {"measurement": "GI50", "setting": "HL-60 [6]", "result": 17.5, "unit": "nM"}, {"measurement": "GI50", "setting": "NCI-H460", "result": 37.8, "unit": "nM"}, {"measurement": "GI50", "setting": "MX1", "result": 12.1, "unit": "nM"}, {"measurement": "GI50", "setting": "U2OS [7]", "result": 41.7, "unit": "nM"}, {"measurement": "GI50", "setting": "H322", "result": 20.2, "unit": "nM"}, {"measurement": "GI50", "setting": "PC-3 [8]", "result": 14700, "unit": "nM"}, {"measurement": "GI50", "setting": "BT-474 [9]", "result": 7090, "unit": "nM"}, {"measurement": "Activity", "setting": "U2OS [10]", "result": "Active"}, {"measurement": "Activity", "setting": "U2OS [11]", "result": "Active"}, {"measurement": "Activity", "setting": "COLO 205", "result": "Active"}, {"measurement": "Emin", "setting": "[12]", "result": 220.5, "unit": "%"}, {"measurement": "Emin", "setting": "A549", "result": 124.1, "unit": "%"}, {"measurement": "Emin", "setting": "BT-474 [13]", "result": 217, "unit": "%"}, {"measurement": "Emin", "setting": "Calu-3", "result": 115.6, "unit": "%"}, {"measurement": "Emin", "setting": "HeLa", "result": 32.2, "unit": "%"}, {"measurement": "Emin", "setting": "Hep 3B2", "result": 132.1, "unit": "%"}, {"measurement": "Emin", "setting": "HL-60 [14]", "result": 15.3, "unit": "%"}, {"measurement": "Emin", "setting": "Jurkat", "result": 2.2, "unit": "%"}, {"measurement": "Emin", "setting": "MIA PaCa-2", "result": 100.2, "unit": "%"}, {"measurement": "Emin", "setting": "OVCAR-8", "result": 46.5, "unit": "%"}, {"measurement": "Emin", "setting": "PANC-08-13", "result": 131.3, "unit": "%"}, {"measurement": "Emin", "setting": "[15]", "result": 101.2, "unit": "%"}, {"measurement": "Emin", "setting": "Raji", "result": 5.1, "unit": "%"}, {"measurement": "Emin", "setting": "SCLC", "result": 122, "unit": "%"}, {"measurement": "Emin", "setting": "SJSA-1", "result": 123.8, "unit": "%"}, {"measurement": "Emin", "setting": "SK-OV-3", "result": 103.8, "unit": "%"}, {"measurement": "Emax", "setting": "A-427", "result": 218, "unit": "%"}, {"measurement": "Emax", "setting": "A498", "result": 774, "unit": "%"}, {"measurement": "Emax", "setting": "BXPC-3", "result": 278, "unit": "%"}, {"measurement": "Emax", "setting": "HCC1937", "result": 240, "unit": "%"}, {"measurement": "Emax", "setting": "NCI-H1155", "result": 645, "unit": "%"}, {"measurement": "Emax", "setting": "NCI-H727", "result": 262, "unit": "%"}, {"measurement": "Emax", "setting": "PC-3 [16]", "result": 582, "unit": "%"}, {"measurement": "Emax", "setting": "SK-MEL3", "result": 708, "unit": "%"}, {"measurement": "Emax", "setting": "SW-620", "result": 634, "unit": "%"}]}
